This passage reports EC50 results from BindingDB's records for doi:10.7270/Q2F47MJ9 (Emory University, 2007).

Structures are written as SMILES.

The target in the assay is T1, Estrogen receptor (Homo sapiens, UniProt P03372).
T1 sequence (P03372 whole entry): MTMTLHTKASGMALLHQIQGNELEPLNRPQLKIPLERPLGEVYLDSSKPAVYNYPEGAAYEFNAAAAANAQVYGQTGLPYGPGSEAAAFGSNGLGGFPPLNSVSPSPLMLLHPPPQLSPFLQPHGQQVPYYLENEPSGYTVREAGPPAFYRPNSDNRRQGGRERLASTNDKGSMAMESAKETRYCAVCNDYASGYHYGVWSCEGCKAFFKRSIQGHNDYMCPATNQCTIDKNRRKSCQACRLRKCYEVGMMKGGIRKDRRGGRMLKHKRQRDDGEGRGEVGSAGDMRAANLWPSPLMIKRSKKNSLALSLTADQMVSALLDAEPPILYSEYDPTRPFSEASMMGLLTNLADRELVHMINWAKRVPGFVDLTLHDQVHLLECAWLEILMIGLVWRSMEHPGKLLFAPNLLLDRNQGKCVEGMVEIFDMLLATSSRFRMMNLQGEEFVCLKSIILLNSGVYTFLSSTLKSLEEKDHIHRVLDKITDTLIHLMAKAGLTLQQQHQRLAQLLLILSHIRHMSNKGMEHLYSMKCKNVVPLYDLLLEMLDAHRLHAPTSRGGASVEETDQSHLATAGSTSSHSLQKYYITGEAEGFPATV
Description: potentiators of ERα–SRC-1 coactivator binding, dose response, biochemical, TR-FRET, ERα LBD (AID 737).
For the compound `CCc1[nH]nc2c1C(c1cccc(OC(=O)N3CCOCC3)c1)C(C#N)C(=N)O2` (stereo unspecified) [3-(6-amino-5-cyano-3-ethyl-1,4-dihydropyrano[2,3-c]pyrazol-4-yl)phenyl morpholine-4-carboxylate], the EC50 stood at 6.39 µM. The same measure for `O=C1c2ccccc2C(=O)C1c1ccnc2ccccc12` [2-(1H-quinolin-4-ylidene)indane-1,3-quinone]: 6.74 µM. `CCOc1ccccc1C1c2c(-c3ccccc3)noc2N=C(N)C1C#N` (stereo unspecified) [6-amino-4-(2-ethoxyphenyl)-3-phenyl-2,4-dihydroisoxazolo[5,4-b]pyridine-5-carbonitrile]: the half-maximal effective concentration (EC50) was found to be 17.5 µM. Turning to `CCOc1ccc(Cc2sc(Nc3ccccn3)nc2O)cc1` [5-(4-Ethoxy-benzyl)-2-[(Z)-pyridin-2-ylimino]-thiazolidin-4-one], the EC50 worked out at 25.1 µM. Take `CCn1c(=NC(=O)c2ccc(-n3c(O)ccc3O)cc2)sc2c(OC)ccc(OC)c21` [4-[2,5-bis(oxidanylidene)pyrrolidin-1-yl]-N-(3-ethyl-4,7-dimethoxy-1,3-benzothiazol-2-ylidene)benzamide]: the half-maximal effective concentration (EC50) came to 7.94 µM. The same measure for `Cc1ccc(-c2n[nH]c(=S)n2NC=CCc2ccccc2[N+](=O)[O-])cc1`: 6.52 µM.
